For 27 molecules, Ki results are on record in patent US9815796B2 (Merck Sharp & Dohme Corp., priority 2013, dated 2017).

One assay deals with human PDE2A1 (Homo sapiens (Human), UniProt O00408). As to the kind of experiment: IMAP FP PDE selectivity panel, human PDE2A1. The assay is classed as biochemical. The method in brief:
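IMAP FP format: substrate 50 nM FAM-cAMP plus 1000 nM cGMP, enzyme (insect-cell GST-tagged human PDE2A1) at ~20% conversion, 60 min reaction at room temperature. Apparent inhibition constants calculated from parallel/perpendicular fluorescence with KM 10,000 nM.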

Another assay has as its target Rhesus PDE2A3 (Macaca mulatta, UniProt B3VTJ2). Description: PDE2 fluorescence polarization (IMAP FP) inhibition assay, rhesus enzyme. It is filed as biochemical, rhesus macaque. The method in brief:
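IMAP FP (mP from parallel and perpendicular fluorescence against substrate-only control) was read ≥1 h after adding binding reagent. The preceding 60 min room-temperature reaction contained FAM-cAMP (50 nM) and cGMP (1 uM) in pH 7.2 Tris buffer with MgCl2 and DTT. Enzyme was supernatant of sonicated AD293 cells expressing rhesus PDE2A3; compounds were 3-fold titrated, DMSO 1% final.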

Setting [1] is: Human PDE2, Lab B, read-out: Human PDE2 Ki (nM) - Lab B.
Setting [2] is: Rhesus PDE2, Lab A, read-out: Rhesus PDE2 Ki (nM) - Lab A.
[3] abbreviates: Rhesus PDE2, Lab B, read-out: Rhesus PDE2 Ki (nM) - Lab B.
[4] abbreviates: Human PDE2, Lab A, read-out: Human PDE2 Ki (nM) - Lab A.

Where two headings read alike, the source gives them in different places.

Chain of Rhesus PDE2A3 (B3VTJ2 1-941): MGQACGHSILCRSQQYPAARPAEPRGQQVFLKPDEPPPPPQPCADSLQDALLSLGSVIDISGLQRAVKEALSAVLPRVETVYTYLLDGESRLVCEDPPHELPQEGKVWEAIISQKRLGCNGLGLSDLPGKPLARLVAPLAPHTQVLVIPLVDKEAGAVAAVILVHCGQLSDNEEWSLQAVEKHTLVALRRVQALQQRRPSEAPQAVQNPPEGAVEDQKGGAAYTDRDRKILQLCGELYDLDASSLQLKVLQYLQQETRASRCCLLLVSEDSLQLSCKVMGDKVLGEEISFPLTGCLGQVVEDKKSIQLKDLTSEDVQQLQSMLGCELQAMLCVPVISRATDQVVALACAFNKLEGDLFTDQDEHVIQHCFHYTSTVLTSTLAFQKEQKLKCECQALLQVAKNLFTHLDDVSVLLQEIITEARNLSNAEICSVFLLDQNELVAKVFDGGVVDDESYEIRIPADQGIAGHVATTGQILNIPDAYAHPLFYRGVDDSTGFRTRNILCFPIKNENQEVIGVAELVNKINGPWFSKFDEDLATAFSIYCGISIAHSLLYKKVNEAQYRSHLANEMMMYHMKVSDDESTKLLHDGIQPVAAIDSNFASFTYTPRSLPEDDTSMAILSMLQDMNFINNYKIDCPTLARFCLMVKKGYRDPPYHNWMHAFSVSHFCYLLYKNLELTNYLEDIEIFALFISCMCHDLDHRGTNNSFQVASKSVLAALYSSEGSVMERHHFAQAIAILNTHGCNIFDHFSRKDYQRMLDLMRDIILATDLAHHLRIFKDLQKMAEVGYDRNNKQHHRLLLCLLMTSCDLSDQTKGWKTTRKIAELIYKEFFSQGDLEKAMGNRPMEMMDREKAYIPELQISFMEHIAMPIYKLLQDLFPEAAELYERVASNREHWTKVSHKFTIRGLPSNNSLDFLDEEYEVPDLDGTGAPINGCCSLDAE
Chain of human PDE2A1 (O00408 other isoform, or with tags, fused parts or gaps): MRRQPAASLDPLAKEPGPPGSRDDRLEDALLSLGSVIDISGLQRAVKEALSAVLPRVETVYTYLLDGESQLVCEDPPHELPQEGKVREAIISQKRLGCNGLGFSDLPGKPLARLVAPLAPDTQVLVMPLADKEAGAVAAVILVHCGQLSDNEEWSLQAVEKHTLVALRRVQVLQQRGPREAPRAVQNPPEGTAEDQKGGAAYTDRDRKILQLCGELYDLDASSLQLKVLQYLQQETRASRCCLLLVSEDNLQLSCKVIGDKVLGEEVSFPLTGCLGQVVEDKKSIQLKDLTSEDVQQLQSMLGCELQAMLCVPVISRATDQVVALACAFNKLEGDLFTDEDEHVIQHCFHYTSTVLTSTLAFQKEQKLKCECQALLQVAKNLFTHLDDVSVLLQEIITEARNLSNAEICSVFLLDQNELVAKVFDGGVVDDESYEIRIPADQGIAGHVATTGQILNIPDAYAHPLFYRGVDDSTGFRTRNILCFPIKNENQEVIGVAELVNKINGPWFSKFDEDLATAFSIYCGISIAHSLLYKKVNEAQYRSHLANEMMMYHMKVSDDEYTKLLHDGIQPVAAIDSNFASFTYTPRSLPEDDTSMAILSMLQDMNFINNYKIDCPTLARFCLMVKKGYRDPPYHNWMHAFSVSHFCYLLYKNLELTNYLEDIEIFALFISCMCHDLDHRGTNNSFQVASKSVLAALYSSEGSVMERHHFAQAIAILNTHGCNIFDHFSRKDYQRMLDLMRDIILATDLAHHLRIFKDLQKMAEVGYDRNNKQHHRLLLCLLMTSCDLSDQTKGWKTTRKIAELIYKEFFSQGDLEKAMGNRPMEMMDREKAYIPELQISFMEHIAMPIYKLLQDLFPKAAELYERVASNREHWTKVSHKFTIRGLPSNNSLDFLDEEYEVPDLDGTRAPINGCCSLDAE

One may read the Ki as a dissociation constant, usually derived from enzyme kinetics or from competition with a known ligand. Regarding `CSCC(NC(=O)c1cc(=O)[nH]c(-c2ccccc2)n1)c1ccc(C(F)(F)F)cc1` (centres unmarked) [Example 341, N-{2-(methylsulfanyl)-1-[4-(trifluoromethyl)phenyl]ethyl}-6-oxo-2-phenyl-1,6-dihydropyrimidine-4-carboxamide], the Ki was 19 nM at human PDE2A1 (setting [1]), approximately 11 nM on Rhesus PDE2A3 (setting [2]) and 24 nM on Rhesus PDE2A3 (setting [3]).

For the molecule `C[C@@H](NC(=O)c1cc(=O)[nH]c(-c2ncccn2)n1)c1cc(F)c(C(F)(F)F)c(F)c1` [Example 108, N-{(1R)-1-[3,5-difluoro-4-(trifluoromethyl)phenyl]ethyl}-6-oxo-1,6-dihydro-2,2′-bipyrimidine-4-carboxamide], the Ki on human PDE2A1 (setting [4]) is approximately 9.2 nM; on human PDE2A1 (setting [1]) it was 39 nM; at Rhesus PDE2A3 (setting [2]), 25 nM; on Rhesus PDE2A3 (setting [3]), 33 nM.

As for `CC(C)[C@@H](NC(=O)c1cc(=O)[nH]c(-c2ncccn2)n1)c1ccc(S(F)(F)(F)(F)F)cc1` [Example 265, N-{(1R)-2-methyl-1-[4-(pentafluoro-λ^6-sulfanyl)phenyl]propyl}-6-oxo-1,6-dihydro-2,2′-bipyrimidine-4-carboxamide], the inhibitory constant (Ki) on human PDE2A1 (setting [1]) is 1.5 nM; at Rhesus PDE2A3 (setting [2]) it was 1.2 nM; at Rhesus PDE2A3 (setting [3]), 1.6 nM.

With `CC(C)[C@@H](NC(=O)c1cc(=O)[nH]c(-c2ncccn2)n1)c1ccc(SC(F)(F)F)c(F)c1` [Example 245, N-[(1R)-1-{3-fluoro-4-[(trifluoromethyl)sulfanyl]phenyl}-2-methylpropyl]-6-oxo-1,6-dihydro-2,2′-bipyrimidine-4-carboxamide], the Ki at human PDE2A1 (setting [1]) worked out at 1.3 nM; at Rhesus PDE2A3 (setting [2]), 1.4 nM; on Rhesus PDE2A3 (setting [3]), 1.3 nM.

With `C[C@@H](NC(=O)c1cc(=O)[nH]c(-c2ncccn2)n1)c1ccc(C(F)(F)F)cc1` [Example 291, 6-oxo-N-{(1R)-1-[4-(trifluoromethyl)phenyl]ethyl}-1,6-dihydro-2,2′-bipyrimidine-4-carboxamide], the figures for the inhibition constant Ki at human PDE2A1 (setting [4]) and at Rhesus PDE2A3 (setting [2]) were 10 nM and 11 nM, respectively.

For `O=C(N[C@@H](c1ccc(C(F)(F)F)cc1)C1CC1)c1cc(=O)[nH]c(-c2ccccc2)n1` [Example 177, N-{(R)-cyclopropyl[4-(trifluoromethyl)phenyl]methyl}-6-oxo-2-phenyl-1,6-dihydropyrimidine-4-carboxamide], the figures for the Ki on human PDE2A1 (setting [4]) and on Rhesus PDE2A3 (setting [2]) were 3.1 nM and 3.8 nM, respectively.

For `C[C@@H](NC(=O)c1cc(=O)[nH]c(-c2ccccc2)n1)c1ccc(C(F)(F)F)cc1F` [Example 150, N-{(1R)-1-[2-fluoro-4-(trifluoromethyl)phenyl]ethyl}-6-oxo-2-phenyl-1,6-dihydropyrimidine-4-carboxamide], the Ki at human PDE2A1 (setting [4]) came to 15 nM; on Rhesus PDE2A3 (setting [2]) it was 29 nM.

Take `CC(C)(C)[C@@H](NC(=O)c1cc(=O)[nH]c(-c2ccccc2)n1)c1ccc(OC(F)F)cc1` [Example 449, N-{(1R)-1-[4-(difluoromethoxy)phenyl]-2,2-dimethylpropyl}-6-oxo-2-phenyl-1,6-dihydropyrimidine-4-carboxamide]: the Ki is 1.8 nM at human PDE2A1 (setting [1]) and 2.6 nM on Rhesus PDE2A3 (setting [3]).

On to `C[C@@H](NC(=O)c1cc(=O)[nH]c(C2CC2)n1)c1ccc(OC(F)(F)F)cc1` [Example 10, 2-cyclopropyl-6-oxo-N-{(1R)-1-[4-(trifluoromethoxy)phenyl]ethyl}-1,6-dihydropyrimidine-4-carboxamide], for which the inhibitory constant (Ki) amounted to 6 nM on human PDE2A1 (setting [4]) and 9.9 nM on Rhesus PDE2A3 (setting [2]).

As for `Cc1nc(C(=O)NC(C#N)c2ccc(C(F)(F)F)cc2)cc(=O)[nH]1` (centres unmarked) [Example 33, N-{cyano[4-(trifluoromethyl)phenyl]methyl}-2-methyl-6-oxo-1,6-dihydropyrimidine-4-carboxamide], the Ki at human PDE2A1 (setting [4]) turned out to be 656 nM; at Rhesus PDE2A3 (setting [2]), 802 nM.

As to `O=C(NC(c1ccc(F)cc1)c1ccc(C(F)(F)F)cc1)c1cc(=O)[nH]c(-c2ccccc2)n1` (centres unmarked) [Example 367, N-{(4-fluorophenyl)[4-(trifluoromethyl)phenyl]methyl}-6-oxo-2-phenyl-1,6-dihydropyrimidine-4-carboxamide], the Ki at human PDE2A1 (setting [1]) turned out to be 262 nM; on Rhesus PDE2A3 (setting [2]), 74 nM; at Rhesus PDE2A3 (setting [3]) it was 314 nM.

Consider `CC(C)c1ccc([C@H](NC(=O)c2cc(=O)[nH]c(C3CC3)n2)C2(C)CC2)cc1` [Example 444, 2-cyclopropyl-N-{(R)-(1-methylcyclopropyl)[4-(1-methylethyl)phenyl]methyl}-6-oxo-1,6-dihydropyrimidine-4-carboxamide], for which the Ki at human PDE2A1 (setting [1]) was found to be 2.5 nM; on Rhesus PDE2A3 (setting [3]), 2 nM.

For the molecule `CC(C)(NC(=O)c1cc(=O)[nH]c(-c2ccccc2)n1)c1ccc(SC(F)(F)F)c(F)c1` [Example 361, N-(1-{3-fluoro-4-[(trifluoromethyl)sulfanyl]phenyl}-1-methylethyl)-6-oxo-2-phenyl-1,6-dihydropyrimidine-4-carboxamide], the Ki on human PDE2A1 (setting [1]) was 81 nM; at Rhesus PDE2A3 (setting [2]), approximately 78 nM; at Rhesus PDE2A3 (setting [3]) it was 99 nM.

`CC(C)c1ccc([C@@H](C)NC(=O)c2cc(=O)[nH]c(-c3ccccc3)n2)cc1` [Example 146, N-{(1R)-1-[4-(1-methylethyl)phenyl]ethyl}-6-oxo-2-phenyl-1,6-dihydropyrimidine-4-carboxamide]: the Ki was found to be 7.1 nM at human PDE2A1 (setting [4]) and 9.3 nM on Rhesus PDE2A3 (setting [2]).

For the molecule `CC[C@@H](NC(=O)c1cc(=O)[nH]c(-c2ncccn2)n1)c1ccc(SC(F)(F)F)c(F)c1` [Example 263, N-[(1R)-1-{3-fluoro-4-[(trifluoromethyl)sulfanyl]phenyl}propyl]-6-oxo-1,6-dihydro-2,2′-bipyrimidine-4-carboxamide], the Ki on human PDE2A1 (setting [1]) is 2.1 nM; on Rhesus PDE2A3 (setting [2]), 1.5 nM; on Rhesus PDE2A3 (setting [3]), 1.9 nM.

`C[C@@H](NC(=O)c1cc(=O)[nH]c(-c2ccccc2)n1)c1ccc(CC(F)(F)F)cc1` [Example 183, 6-oxo-2-phenyl-N-{(1R)-1-[4-(2,2,2-trifluoromethyl)phenyl]ethyl}-1,6-dihydropyrimidine-4-carboxamide]: the results for the inhibition constant Ki at human PDE2A1 (setting [4]) and on Rhesus PDE2A3 (setting [2]) were 4.1 nM and 6.4 nM, respectively.

For the molecule `O=C(NC1(c2ccc(OC(F)(F)F)c(F)c2)CC1)c1cc(=O)[nH]c(C2CC2)n1` [Example 201], the inhibition constant (Ki) was determined as 2.8 nM at human PDE2A1 (setting [4]) and 4.4 nM on Rhesus PDE2A3 (setting [2]).

As for `Cc1nc(C(=O)NC(C)c2ccc(C(C)C)cc2)cc(=O)[nH]1` (single isomer, unassigned) [Example 305, (R)- or (S)-2-methyl-N-{1-[4-(1-methylethyl)phenyl]ethyl}-6-oxo-1,6-dihydropyrimidine-4-carboxamide], the Ki at human PDE2A1 (setting [4]) is 20 nM; at Rhesus PDE2A3 (setting [2]), 26 nM.

Regarding `Cc1nc(C(=O)N[C@@H](c2ccc(SC(F)(F)F)cc2)C2CC2)cc(=O)[nH]1` [Example 41, N-[(R)-cyclopropyl{4-[(trifluoromethyl)sulfanyl]phenyl}methyl]-2-methyl-6-oxo-1,6-dihydropyrimidine-4-carboxamide], the Ki was found to be 5.2 nM on human PDE2A1 (setting [4]) and 9.2 nM at Rhesus PDE2A3 (setting [2]).

With `O=C(NC1(c2ccc(SC(F)(F)F)cc2)CC1)c1cc(=O)[nH]c(C2CC2)n1` [Example 199, 2-cyclopropyl-6-oxo-N-(1-{4-[(trifluoromethyl)sulfanyl]phenyl}cyclopropyl)-1,6-dihydropyrimidine-4-carboxamide], the inhibitory constant (Ki) came out at 7 nM at human PDE2A1 (setting [4]) and 12 nM at Rhesus PDE2A3 (setting [2]).

With `O=C(N[C@@H](c1ccc(OC(F)(F)F)c(F)c1)C1CC1)c1cc(=O)[nH]c(-c2ncccn2)n1` [Example 93, N-{(R)-cyclopropyl[3-fluoro-4-(trifluoromethoxy)phenyl]methyl}-6-oxo-1,6-dihydro-2,2′-bipyrimidine-4-carboxamide], the inhibition constant Ki on human PDE2A1 (setting [4]) was 9.6 nM; at Rhesus PDE2A3 (setting [2]) it was 35 nM.

In the case of `Cc1nc(C(=O)NC2(c3ccc(C(F)(F)F)cc3)CCCC2)cc(=O)[nH]1` [Example 270, 2-methyl-6-oxo-N-{1-[4-(trifluoromethyl)phenyl]cyclopentyl}-1,6-dihydropyrimidine-4-carboxamide], the inhibition constant (Ki) stood at 113 nM at human PDE2A1 (setting [4]) and 225 nM at Rhesus PDE2A3 (setting [2]).

With `C[C@@H](NC(=O)c1cc(=O)[nH]c(C2CC2)n1)c1ccc(OC(F)(F)F)c(F)c1` [Example 296, 2-cyclopropyl-N-{(1R)-1-[3-fluoro-4-(trifluoromethoxy)phenyl]ethyl}-6-oxo-1,6-dihydropyrimidine-4-carboxamide], the Ki worked out at 3.1 nM on human PDE2A1 (setting [4]) and 6.3 nM at Rhesus PDE2A3 (setting [2]).

As for `Cc1nc(C(=O)N[C@H](C)c2cc(F)c(C(F)(F)F)c(F)c2)cc(=O)[nH]1` [Example 26, N-{(1R)-[3,5-difluoro-4-(trifluoromethyl)phenyl]ethyl}-2-methyl-6-oxo-1,6-dihydropyrimidine-4-carboxamide], the results for the Ki on human PDE2A1 (setting [4]) and at Rhesus PDE2A3 (setting [2]) were 104 nM and 231 nM, respectively.

For `Cc1nc(C(=O)NC(C)c2ccc(-c3ccccc3)cc2)cc(=O)[nH]1` (single isomer, unassigned) [Example 307, (R)- or (S)-N-(1-biphenyl-4-ylethyl)-2-methyl-6-oxo-1,6-dihydropyrimidine-4-carboxamide], the inhibitory constant (Ki) at human PDE2A1 (setting [4]) was found to be 16 nM; on Rhesus PDE2A3 (setting [2]), 17 nM.

For `COC(=O)C(NC(=O)c1cc(=O)[nH]c(C)n1)c1ccc(C(F)(F)F)cc1` (racemic) [Example 325, Methyl 2-(2-methyl-6-oxo-1,6-dihydropyrimidine-4-carboxamido)-2-(4-(trifluoromethyl)phenyl)-acetate], the inhibition constant (Ki) on human PDE2A1 (setting [4]) stood at 687 nM; on Rhesus PDE2A3 (setting [2]) it was 1100 nM.

For the molecule `C[C@@H](NC(=O)c1cc(=O)[nH]c(Cc2cccnc2)n1)c1ccc(C(F)(F)F)cc1` [Example 6, 6-oxo-2-(pyridin-3-ylmethyl)-N-{(1R)-1-[4-(trifluoromethyl)phenyl]ethyl}-1,6-dihydropyrimidine-4-carboxamide], the values for the Ki at human PDE2A1 (setting [4]) and at Rhesus PDE2A3 (setting [2]) were 33 nM and 55 nM, respectively.
